# Measurements taken from PubChem BioAssay (NCI).
#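 Test compounds were applied to cells in 96-well plates for 48 hours at 5 doses. TGI marks complete inhibition of growth.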 Where a SMILES comes first, the peptide text is derived from it. The star is where a group is joined. Boc = CC(C)(C)OC(=O)*; OSu = O=C1CCC(=O)N1O*
# Experiments:
# Assay in all cases: growth of human tumour cells (NCI), 48 h
# [1] = tested on: HL-60(TB) leukemia
# [2] = tested on: OVCAR-5 ovarian
# [3] = tested on: MDA-MB-231 breast
# [4] = tested on: HOP-62 NSCLC
# [5] = tested on: IGROV1 ovarian
# [6] = tested on: SF-295 CNS
# [7] = tested on: CAKI-1 renal
# [8] = tested on: SK-MEL-5 melanoma
# [9] = tested on: TK-10 renal
# [10] = tested on: COLO 205 colon
# [11] = tested on: MALME-3M melanoma
# [12] = tested on: SF-268 CNS
# [13] = tested on: RXF 393 renal
# [14] = tested on: MDA-MB-435
# [15] = tested on: HCC-2998 colon
# [16] = tested on: NCI-H23 lung
# [17] = tested on: SN12C renal
# [18] = tested on: SK-MEL-2 melanoma
SMILES,TGI [1] [µM],TGI [2] [µM],TGI [3] [µM],TGI [4] [µM],TGI [5] [µM],TGI [6] [µM],TGI [7] [µM],TGI [8] [µM],TGI [9] [µM],TGI [10] [µM],TGI [11] [µM],TGI [12] [µM],TGI [13] [µM],TGI [14] [µM],TGI [15] [µM],TGI [16] [µM],TGI [17] [µM],TGI [18] [µM]
C[C@]12CC[C@H]3[C@@H](CC=C4C[C@@H](N5CCCC5)CC[C@@]43C)[C@@H]1C[C@H](N1CCOCC1)[C@@H]2O,> 100,> 100,> 100,> 100,> 100,> 100,> 100,> 100,> 100,> 100,> 100,> 100,> 100,> 100,> 100,> 100,> 100,–
COC(=O)C1C/C(=C/N(C)C)C(=S)N1 (stereo not drawn),–,> 100,> 100,> 100,> 100,> 100,> 100,> 100,> 100,> 100,> 100,> 100,> 100,> 100,> 100,> 100,–,> 100
CN(C)CCNC(=O)c1cccc2c(NCCN(C)C)c3ccccc3nc12,–,11.1,4.58,13.2,10.8,17.6,12.7,13.6,21.9,7.23,15.4,11.2,14.2,7.58,3.73,7.03,5.94,17.6
CCCCCCCCOC1C(O)C(O)C(O)C(O)C12CO2 (stereo not drawn),> 100,–,> 100,> 100,> 100,> 100,> 100,–,> 100,> 100,> 100,> 100,> 100,> 100,> 100,31.3,> 100,> 100
CC(NC(=O)C(NC(=O)OC(C)(C)C)C(C)C)C(=O)NCC(=O)ON1C(=O)CCC1=O (stereo not drawn) (Boc-Val-Ala-Gly-OSu; configuration not given here),–,> 100,> 100,> 100,> 100,> 100,> 100,> 100,> 100,> 100,> 100,> 100,> 100,> 100,> 100,> 100,> 100,> 100
CC(=O)[C@@]1(C)CC2(CCN(C)CC2)OC1C (stereo partly drawn),–,> 100,> 100,> 100,> 100,> 100,> 100,> 100,> 100,> 100,> 100,> 100,> 100,> 100,–,> 100,> 100,–
COC(=O)C(Cc1c[nH]c2ccccc12)NC(=O)C(Cc1c[nH]c2ccccc12)NC(=O)C(Cc1c[nH]c2ccccc12)NC(=O)C(Cc1c[nH]c2ccccc12)NC(=O)C(Cc1c[nH]c2ccccc12)NC(=O)C(Cc1c[nH]c2ccccc12)NC(=O)OC(C)(C)C (stereo not drawn) (Boc-WWWWWW-OMe; configuration not given here),> 100,> 100,> 100,> 100,> 100,–,> 100,70.5,> 100,–,> 100,> 100,–,> 100,> 100,> 100,> 100,> 100
C[n+]1c(-c2ccc(/C=N/NC(=N)N/N=C/c3ccc(-c4cn5cc(Cl)ccc5[n+]4C)cc3)cc2)cn2cc(Cl)ccc21,> 100,> 100,> 100,> 100,> 100,> 100,–,> 100,> 100,> 100,–,> 100,–,> 100,> 100,–,> 100,–
CCC12CCCN(Cc3ccccc3)C1c1c([nH]c3ccccc13)C(C(=O)OC)C2 (stereo not drawn),> 10,> 10,> 10,> 10,> 10,> 10,> 10,> 10,> 10,> 10,> 10,> 10,–,> 10,> 10,> 10,> 10,–
NC(N)=N/N=C/c1nc2n(c1[N+](=O)[O-])CCS2,55,> 100,> 100,> 100,> 100,98.4,> 100,34.4,> 100,27.4,30.8,> 100,65.3,74.1,–,42.6,> 100,44.7
CCCCc1ccc(Nc2nc3c(ncn3C3CC(O)C(CN=[N+]=[N-])O3)c(=O)[nH]2)cc1 (stereo not drawn),> 100,> 100,> 100,> 100,> 100,> 100,> 100,> 100,–,> 100,> 100,> 100,> 100,> 100,> 100,> 100,> 100,> 100
COC(=O)C1=C(C(=O)OC)C(C(=O)c2ccc(Br)cc2)N2N=C(c3ccc(Cl)cc3)C=CC12 (stereo not drawn),> 100,> 100,> 100,> 100,> 100,> 100,> 100,> 100,> 100,> 100,> 100,> 100,–,> 100,> 100,> 100,> 100,> 100
O=[N+]([O-])C1CC/C(=N/O)c2nonc21 (stereo not drawn),> 10,> 10,> 10,> 10,> 10,> 10,> 10,> 10,> 10,> 10,> 10,> 10,> 10,> 10,> 10,> 10,> 10,–
CCCN1C(=O)CC(C)N(Cc2ccccc2Cl)C1=S (stereo not drawn),> 100,> 100,97,> 100,> 100,> 100,> 100,33.4,67.4,32.9,56.7,86.5,21.9,65.9,–,56.7,94.8,44.1
Cc1cnc2sn(-c3ccc(Oc4ccccc4)cc3)c(=O)c2c1,> 100,35.3,37.6,36.7,45.5,39.3,–,39.6,40.1,47.1,9.07,38.2,–,> 100,22.8,80.3,43,> 100
C1CCC2(CC1)O[C@@H]1[C@@H](O2)[C@@H](O[C@H]2O[C@@H]3COC4(CCCCC4)O[C@H]3[C@@H]3OC4(CCCCC4)O[C@@H]23)O[C@@H]2COC3(CCCCC3)O[C@@H]12,> 100,> 100,> 100,> 100,> 100,> 100,> 100,> 100,> 100,> 100,> 100,> 100,> 100,> 100,–,> 100,> 100,> 100
Cc1nc(C)c(C(=O)NNC(N)=S)cc1C(=O)NNC(N)=S,> 100,> 100,> 100,> 100,> 100,> 100,> 100,> 100,> 100,> 100,–,> 100,> 100,> 100,> 100,> 100,> 100,> 100
O=C(/C=C/c1ccc(O)c(O)c1)OCCCc1ccccc1,4.84,37.3,25.2,26.6,12.1,38.9,47,26.3,–,27.1,25.4,24,25.5,24.6,39.5,35.3,25.3,46.4
CCOC(=O)C1=CNC(C(=O)OCC)C1c1cccn1-c1ccc(Cl)cc1[N+](=O)[O-] (stereo not drawn),–,60.3,27.2,53.6,29.9,31.3,58.6,30.3,54.9,> 100,–,55.5,36.7,58.7,51.9,> 100,37.8,34.8
Cc1[nH]c2c(c1C)S(=O)(=O)c1cc3ccccc3nc1N2,–,59,76.1,39.8,28,> 100,> 100,28.8,> 100,46.3,45.2,> 100,66.8,> 100,> 100,> 100,36.9,> 100
O=C1CC2(c3ccccc3)ON=C(c3ccccc3)N2c2ccccc2N1 (stereo not drawn),> 100,> 100,> 100,> 100,> 100,> 100,–,–,> 100,> 100,> 100,> 100,> 100,53.2,> 100,> 100,> 100,> 100
CCC(CON(C)c1ccccc1)(SC)SC,> 100,> 100,> 100,> 100,> 100,> 100,> 100,> 100,> 100,> 100,> 100,> 100,–,> 100,> 100,> 100,> 100,> 100
O=C(c1ccco1)N1CCCN(C(=O)c2ccco2)C1=S,> 100,> 100,> 100,> 100,> 100,–,> 100,> 100,> 100,> 100,> 100,> 100,> 100,> 100,–,> 100,> 100,> 100
COC(=O)/C(=C\Nc1cccc(C)n1)S(=O)(=O)c1ccc(C)cc1,53.3,> 100,> 100,> 100,> 100,> 100,–,> 100,> 100,49.9,> 100,> 100,> 100,> 100,> 100,> 100,> 100,> 100
CCCCC(=O)NS(=NC(=O)c1ccccc1)C(Cl)(Cl)Cl (stereo not drawn),> 100,> 100,> 100,> 100,> 100,> 100,–,> 100,> 100,> 100,> 100,> 100,> 100,> 100,> 100,> 100,> 100,> 100
COC(=O)CCC(=O)NC1=C(NCc2ccccc2)C(=O)c2ccccc2C1=O,> 100,98.7,85.7,–,53.7,> 100,72.8,24.9,> 100,76.1,–,> 100,> 100,34.9,> 100,64.6,88.2,67.1
OC(c1cc2ccccc2o1)c1cc2ccccc2s1 (stereo not drawn),> 10,> 10,> 10,> 10,> 10,> 10,> 10,> 10,> 10,> 10,–,> 10,> 10,> 10,> 10,> 10,> 10,> 10
